The NIST ThermoML archive (doi:10.1021/je025579q)

Experiments:
[1] = 298.15 K; 101.33 kPa; Liquid
[2] = xn = mol fraction of the nth substance listed; conditions: 298.15 K, 101.3 kPa, Liquid; for speed of sound: Sing-around technique in a fixed-path interferometer

COC(C)(C)C [2-methoxy-2-methylpropane]
[1]
Conditions | mass density [kg/m3] | speed of sound [m/s]
– | 735.35 | 1036.1

CCCCO [butan-1-ol]
[1]
Conditions | mass density [kg/m3] | speed of sound [m/s]
– | 805.67 | 1239.8

CCCCO [butan-1-ol] + CCCCCCCCCC
[2], x1 = 1
Conditions | mass density [kg/m3] | speed of sound [m/s]
– | 805.67 | 1239.8

CCCCCCCCCC [decane]
[1]
Conditions | mass density [kg/m3] | speed of sound [m/s]
– | 726.09 | 1234.7

CCCCCCCCCC [decane] + CCCCO
[2]
Conditions | mass density [kg/m3] | speed of sound [m/s]
x2 = 0 | 726.09 | 1234.7
x2 = 0.04848 | 727.38 | 1230.8
x2 = 0.09526 | 728.99 | 1228.9
x2 = 0.2045 | 733.33 | 1225.6
x2 = 0.2974 | 737.65 | 1223.9
x2 = 0.3949 | 742.88 | 1222.7
x2 = 0.4455 | 745.96 | 1222.5
x2 = 0.4928 | 749.07 | 1222.4
x2 = 0.5579 | 753.72 | 1222.7
x2 = 0.5937 | 756.5 | 1222.9
x2 = 0.7031 | 766.17 | 1224.6
x2 = 0.7901 | 775.35 | 1226.7
x2 = 0.8707 | 785.36 | 1230.4
x2 = 0.948 | 796.76 | 1235.3
